What follows are compounds tested against T1, human Farnesoid X Receptor (FXR) ligand binding domain (GST-FXR LBD) (Homo sapiens, UniProt Q96RI1) (assay: Human GST-FXR LBD co-activator interaction assay (FXR HTRF assay)). Conditions: GST-FXR LBD interaction with biotin-labeled SRC-1 peptide, FRET, response relative to GW4064, read-out: FXR coactivator interaction assay (HTRF).
T1 construct: purchased Invitrogen
T1 sequence (Q96RI1 193-472 isoform Q96RI1-2): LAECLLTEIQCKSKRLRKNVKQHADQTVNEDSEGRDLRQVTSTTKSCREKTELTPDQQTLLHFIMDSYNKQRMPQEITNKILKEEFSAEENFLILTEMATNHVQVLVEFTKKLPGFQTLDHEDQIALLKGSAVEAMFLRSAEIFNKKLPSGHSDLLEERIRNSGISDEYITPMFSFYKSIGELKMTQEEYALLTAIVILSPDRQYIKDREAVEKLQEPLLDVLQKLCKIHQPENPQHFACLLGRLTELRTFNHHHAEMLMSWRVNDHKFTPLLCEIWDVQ
Format: biochemical
Description: Human GST-FXR LBD Co-Activator Interaction Assay
The FXR HTRF assay is a biochemical assay measuring the interaction between FXR and a coactivator protein (SRC1). The ligand-induced interaction with a coactivator protein is a critical step in transcriptional activation by FXR. Thus, this is an assay designed to measure FXR agonist activity of the test compounds.
Recombinant human Farnesoid X Receptor (FXR) ligand binding domain (amino acids 193-472) fused to glutathione S-transferase (GST) purified protein (GST-FXR LBD) was purchased (Invitrogen). The ligand-dependent interaction between GST-FXR LBD and a peptide derived from Steroid Receptor Coactivator-1 (SRC-1) was monitored by Fluorescence Resonance Energy Transfer (FRET). […] Test compounds (in DMSO solution) and detection reagents (anti-GST-Cryptate labeled antibody and Streptavidin-XL665 conjugate; CisBio) were added in assay buffer containing 50 mM KF. Plates are incubated at room temperature in the dark for 2.5 hrs before reading on an Envision (PerkinElmer) at 665 nm and 590 nm. The HTRF assay results were calculated from the 665 nm/590 nm ratio (ratio=(A665 nm/A590 nm)×10^4) and expressed in Delta F %=(Ratiosample−Rationegative)/Rationegative×100.
A negative control (without Streptavidin-XL665) was run with each assay and represented the background fluorescence. A reference FXR agonist, (E)-3-(2-chloro-4-((3-(2,6-dichlorophenyl)-5-isopropylisoxazol-4-yl)methoxy)styryl)benzoic acid (Compound GW4064), was included in each experiment as positive control. The efficacy of each test compound was compared to that of GW4064. At each concentration, the relative activity of the test compound was expressed as Response %=(Rsample−RDMSO)/(Rpositive−RDMSO), where Rsample is the HTRF response (expressed in Delta F %) for the test compound, Rpositive is the maximal response for GW4064 at saturating concentrations, and RDMSO is the response for DMSO control. The EC50 values were calculated using GraphPad Prism (GraphPad Software) using non-linear regression curve fit (log(agonist) vs. response-variable slope (four parameters)).

Compared with `Cn1nc(C(=O)N(CCOc2ccc(C(=O)O)cc2F)Cc2ccccc2F)c2c1-c1cc(F)ccc1OC2` [Compound 61, 3-fluoro-4-(2-(8-fluoro-N-(2-fluorobenzyl)-1-methyl-1,4-dihydrochromeno[4,3-c]pyrazole-3-carboxamido)ethoxy)benzoic Acid], `Cn1nc(C(=O)N(CCOc2ccc(C(=O)O)cc2F)Cc2ccccc2F)c2c1-c1cc(Cl)ccc1OC2` [Compound 43, 4-(2-(8-chloro-N-(2-fluorobenzyl)-1-methyl-1,4-dihydrochromeno[4,3-c]pyrazole-3-carboxamido)ethoxy)-3-fluorobenzoic Acid] is 4.9-fold lower in EC50: 89 nM for the first, 18 nM for the second.

`Cc1cccc(CN(Cc2ccc(C(=O)O)cc2)C(=O)c2nn(C)c3c2COc2ccc(Cl)cc2-3)c1` [Compound 80, 4-((8-chloro-1-methyl-N-(3-methylbenzyl)-1,4-dihydrochromeno[4,3-c]pyrazole-3-carboxamido)methyl)benzoic acid] and `Cc1cccc(CN(Cc2ccc(C(=O)O)cc2F)C(=O)c2nn(C)c3c2COc2ccc(Cl)cc2-3)c1` [Compound 84, 4-((8-chloro-1-methyl-N-(3-methylbenzyl)-1,4-dihydrochromeno[4,3-c]pyrazole-3-carboxamido)methyl)-3-fluorobenzoic acid] are within 1.5-fold of each other in EC50: 16 nM for the first, 18 nM for the second.

`Cc1cc(Cl)cc2c1OCc1c(C(=O)N(CC(=O)Nc3cccc(C(=O)O)c3)Cc3ccccc3F)nn(C)c1-2` [Compound 14, 3-(2-(8-chloro-N-(2-fluorobenzyl)-1,6-dimethyl-1,4-dihydrochromeno[4,3-c]pyrazole-3-carboxamido)acetamido)benzoic acid] and `Cn1nc(C(=O)N(CC(=O)Nc2cccc(C(=O)O)c2)Cc2ccccc2F)c2c1-c1cc(Cl)c(F)cc1OC2` [Compound 25, 3-(2-(8-chloro-7-fluoro-N-(2-fluorobenzyl)-1-methyl-1,4-dihydrochromeno[4,3-c]pyrazole-3-carboxamido)acetamido)benzoic acid] are within 1.5-fold of each other in EC50: 0.84 nM for the first, 0.7 nM for the second.

Going from `Cc1cc(C(=O)O)cc(C)c1OCCN(Cc1ccccc1F)C(=O)c1nn(C)c2c1COc1ccc(Cl)cc1-2` [Compound 47, 4-(2-(8-chloro-N-(2-fluorobenzyl)-1-methyl-1,4-dihydrochromeno[4,3-c]pyrazole-3-carboxamido)ethoxy)-3,5-dimethylbenzoic acid] to `Cn1nc(C(=O)N(CCOc2c(F)cc(C(=O)O)cc2F)Cc2ccccc2F)c2c1-c1cc(Cl)ccc1OC2` [Compound 50, 4-(2-(8-chloro-N-(2-fluorobenzyl)-1-methyl-1,4-dihydrochromeno[4,3-c]pyrazole-3-carboxamido)ethoxy)-3,5-difluorobenzoic acid], the EC50 rises from 0.53 nM to 11 nM (21-fold). The first is the more potent here.

`Cn1nc(C(=O)N(CC(=O)Nc2cc(C(=O)O)ccc2F)Cc2ccccc2)c2c1-c1cc(F)ccc1OC2` [Compound 32, 3-(2-(N-benzyl-8-fluoro-1-methyl-1,4-dihydrochromeno[4,3-c]pyrazole-3-carboxamido)acetamido)-4-fluorobenzoic acid] and `Cn1nc(C(=O)N(CC(=O)Nc2cc(C(=O)O)ccc2F)Cc2ccccc2)c2c1-c1cc(F)c(F)cc1OC2` [Compound 19, 3-(2-(N-benzyl-7,8-difluoro-1-methyl-1,4-dihydrochromeno[4,3-c]pyrazole-3-carboxamido)acetamido)-4-fluorobenzoic acid] are within 1.5-fold of each other in EC50: 0.74 nM for the first, 0.5 nM for the second.

First: Cn1nc(C(=O)N(Cc2ccc(C(=O)O)cc2)Cc2cccc(F)c2)c2c1-c1cc(F)ccc1OC2 [Compound 77, 4-((8-fluoro-N-(3-fluorobenzyl)-1-methyl-1,4-dihydrochromeno[4,3-c]pyrazole-3-carboxamido)methyl)benzoic acid]
Second: Cn1nc(C(=O)N(Cc2ccccc2)Cc2ccc(C(=O)O)cc2F)c2c1-c1cc(F)ccc1OC2 [Compound 79, 4-((N-benzyl-8-fluoro-1-methyl-1,4-dihydrochromeno[4,3-c]pyrazole-3-carboxamido)methyl)-3-fluorobenzoic acid]
The EC50 of the first is 2.8-fold lower: 7.9 nM for the first, 22 nM for the second. The first is the more potent here.

Compared with `Cn1nc(C(=O)N(CC(=O)Nc2cc(C(=O)O)ccc2F)CC2CCCC2)c2c1-c1cc(Cl)ccc1OC2` [Compound 36, 3-(2-(8-chloro-N-(cyclopentylmethyl)-1-methyl-1,4-dihydrochromeno[4,3-c]pyrazole-3-carboxamido)acetamido)-4-fluorobenzoic Acid], `Cn1nc(C(=O)N(CC(=O)Nc2cc(C(=O)O)ccc2F)Cc2cccc(F)c2)c2c1-c1cc(Cl)ccc1OC2` [Compound 28, 3-(2-(8-chloro-N-(3-fluorobenzyl)-1-methyl-1,4-dihydrochromeno[4,3-c]pyrazole-3-carboxamido)acetamido)-4-fluorobenzoic acid] is 87-fold lower in EC50: 33 nM for the first, 0.38 nM for the second.

Compared with `Cn1nc(C(=O)N(CC(=O)Nc2cc(C(=O)O)ccc2F)Cc2ccccc2F)c2c1-c1cc(Cl)ccc1OCC2` [Compound 34, 3-(2-(9-chloro-N-(2-fluorobenzyl)-1-methyl-4,5-dihydro-1H-benzo[2,3]oxepino[4,5-c]pyrazole-3-carboxamido)acetamido)-4-fluorobenzoic acid], `Cn1nc(C(=O)N(CC(=O)Nc2cccc(C(=O)O)c2)Cc2ccccc2F)c2c1-c1cc(F)ccc1OC2` [Compound 7, 3-(2-(8-fluoro-N-(2-fluorobenzyl)-1-methyl-1,4-dihydrochromeno[4,3-c]pyrazole-3-carboxamido)acetamido)benzoic acid] is 2.1-fold lower in EC50: 2.1 nM for the first, 1 nM for the second. The second is the more potent here.

Compared with `Cn1nc(C(=O)N(CC(=O)Nc2cccc(C(=O)O)c2)Cc2ccccc2F)c2c1-c1ccccc1OC2` [Compound 12, 3-(2-(N-(2-fluorobenzyl)-1-methyl-1,4-dihydrochromeno[4,3-c]pyrazole-3-carboxamido)acetamido)benzoic acid], `Cn1nc(C(=O)N(CC(=O)Nc2cccc(C(=O)O)c2)Cc2ccccc2F)c2c1-c1ccc(F)cc1OC2` [Compound 8, 3-(2-(7-fluoro-N-(2-fluorobenzyl)-1-methyl-1,4-dihydrochromeno[4,3-c]pyrazole-3-carboxamido)acetamido)benzoic acid] is 1.6-fold lower in EC50: 5.4 nM for the first, 3.3 nM for the second.

Going from `Cn1nc(C(=O)N(Cc2cccc(F)c2)Cc2ccc(C(=O)O)c(F)c2)c2c1-c1cc(Cl)ccc1OC2` [Compound 90, 4-((8-chloro-N-(3-fluorobenzyl)-1-methyl-1,4-dihydrochromeno[4,3-c]pyrazole-3-carboxamido)methyl)-2-fluorobenzoic acid] to `Cn1nc(C(=O)N(Cc2ccccc2)Cc2ccc(C(=O)O)cc2F)c2c1-c1cc(Cl)ccc1OC2` [Compound 76, 4-((N-benzyl-8-chloro-1-methyl-1,4-dihydrochromeno[4,3-c]pyrazole-3-carboxamido)methyl)-3-fluorobenzoic acid], the EC50 rises from 5 nM to 9.6 nM (1.9-fold). The first is the more potent here.

Going from `Cn1nc(C(=O)N(CC(=O)Nc2cccc(C(=O)O)c2)Cc2ccccc2)c2c1-c1cc(Cl)ccc1OC2` [Compound 31, 3-(2-(N-benzyl-8-chloro-1-methyl-1,4-dihydrochromeno[4,3-c]pyrazole-3-carboxamido)acetamido)benzoic acid] to `Cn1nc(C(=O)N(CCNc2cc(C(=O)O)ccc2F)Cc2ccccc2F)c2c1-c1ccccc1OC2` [Compound 70, 4-fluoro-3-((2-(N-(2-fluorobenzyl)-1-methyl-1,4-dihydrochromeno[4,3-c]pyrazole-3-carboxamido)ethyl)amino)benzoic acid], the EC50 rises from 0.47 nM to 81 nM (170-fold). The first is the more potent here.

Reference: patent US11021446B2 (NOVARTIS AG, priority 2013, dated 2021)
